In patent US5252579A, “Macrocyclic immunomodulators” (American Home Products Corporation, priority 1993, dated 1993):
Read-outs that look alike come from different tables or passages of the source.

Experiments:
[1] = test system: thymocyte proliferation; assay: comitogen-induced thymocyte proliferation procedure (LAF); type: cell-based, BALB/c mice; conditions: for IC50: read-out: LAF IC50
Procedure: (§1) Immunosuppressive activity for a representative compound of this invention was evaluated in an in vitro standard pharmacological test procedure to measure lymphocyte proliferation (LAF) and in an in vivo standard pharmacological test procedure with evaluated the survival time of a pinch skin graft.
The comitogen-induced thymocyte proliferation procedure (LAF) was used as an […] measure of the immunosuppressive effects of representative compounds. Briefly, cells from the thymus of normal BALB/c mice are cultured for 72 hours with PHA and IL-1 and pulsed with tritiated thymidine during the last six hours. Cells are cultured with and without various concentrations of rapamycin, cyclosporin A, or test compound. Cells are harvested and incorporated radioactivity is determined. Inhibition of lymphoproliferation is assessed as percent change in counts per minute from non-drug treated controls. For each compound evaluated, rapamycin was also evaluated for the purpose of comparison. An IC50 was obtained for each test compound as well as for rapamycin. The results obtained for the representative compounds of this invention were also expressed as a ratio compared with rapamycin. A positive ratio indicates immunosuppressive activity. […] Calculation of the ratio is shown below. [formula]

[2] = test system: skin graft; assay: pinch skin graft survival test procedure; type: in vivo, male BAB/c donors, male C3H(H-2K) recipients; conditions: 4 mg/kg of test compound; intraperitoneally or orally; untreated control 7.00 ± 0.00 days
Procedure: as §1
A representative compound of this invention was also evaluated in an in vivo test procedure designed to determine the survival time of pinch skin graft from male BAB/c donors transplanted to male C3 H(H-2K) recipients. The method is adapted from Billingham R. E. and Medawar P. B., J. Exp. Biol. 28:385-402, (1951). Briefly, a pinch skin graft from the donor was grafted on the dorsum of the recipient as a allograft, and an isograft was used as control in the same region. The recipients were treated with either varying concentrations of test compounds intraperitoneally or orally. Rapamycin was used as a test control. Untreated recipients serve as rejection control. The graft was monitored daily and observations were recorded until the graft became dry and formed a blackened scab. This was considered as the rejection day. The mean graft survival time (number of days±S.D.) of the drug treatment group was compared with the control group. […] Results are expressed as the mean survival time in days. Untreated (control) pinch skin grafts are usually rejected within 6-7 days. […]

[3] = test system: Candida albicans; conditions: both in vitro and in vivo; cited from earlier work
[4] = alone or in combination with picibanil; cited from earlier work
[5] = test system: experimental allergic encephalomyelitis model; conditions: model for multiple sclerosis; cited from earlier work
[6] = test system: adjuvant arthritis model; conditions: model for rheumatoid arthritis; cited from earlier work
[7] = test system: IgE-like antibodies; conditions: cited from earlier work

Compound: 23,25-Deepoxy-23,25-(2-aminoethanethio)-rapamycin [Example 2]
- T cell proliferation inhibition ([1]; at 10 nM): 77%
- T cell proliferation inhibition ([1]; at 0.1 μM): 96%
- LAF ratio (compared with rapamycin) ([1]; ratio > 1: inhibits thymocyte proliferation to a greater extent than rapamycin): 0.82
- IC50 ([1]; thymocytes cultured 72 hours with PHA and IL-1, tritiated thymidine): 5.1 nM
- Skin Graft survival (days ± SD) [2]: 9.00 ± 0.63 days

Compound: CO[C@H]1C[C@@H]2CC[C@@H](C)[C@@](O)(O2)C(=O)C(=O)N2CCCC[C@H]2C(=O)O[C@H]([C@H](C)C[C@@H]2CC[C@@H](O)[C@H](OC)C2)CC(=O)[C@H](C)/C=C(\C)[C@@H](O)[C@@H](OC)C(=O)[C@H](C)C[C@H](C)/C=C/C=C/C=C/1C [Rapamycin]
- IC50 ([1]; Mus musculus, Thymocyte, 72 h): 4.2 nM
- Skin Graft survival (days ± SD) [2]: 11.67 ± 0.63 days
- antifungal activity [3]: antifungal activity, particularly against Candida albicans
- antitumor activity [4]: antitumor activity
- effect in experimental allergic encephalomyelitis model [5]: effective
- effect in adjuvant arthritis model [6]: effective
- inhibition of formation of IgE-like antibodies [7]: effectively inhibited
